Results from US20090081314A1, “Glycemic Control, Diabetes Treatment, and Other Treatments with Acetyl Cholinesterase Inhibitors” (priority 2007, published 2009).
Where two headings read alike, the source gives them in different places.

Columns and labels:
[1] = Other clinical observations in diabetic patients on donepezil (case studies); type: in vivo, human
[2] = Renal function (BUN, creatinine, ultrafiltration) in patients on donepezil (case studies); type: in vivo, human
[3] = Cephalization of body mass / weight loss case studies; details: patient seventeen; three months of donepezil 5 mg daily, no dieting or exercise program
[4] = Coronary artery disease / congestive failure case studies: blood pressure and symptoms; type: in vivo, human
Source text: The present disclosure provides clinical evidence of the use of an acetyl cholinesterase inhibitor for treating coronary artery diseases including heart disease.

[5] = Insulin requirement of diabetic patients on donepezil (case studies); type: in vivo, human; details: for insulin requirements at bedtime (lantus): patient eleven, before 35 units
HIV = HIV infection case studies: viral load and CD4 count; type: in vivo, human; details: for viral load / CD4 count: on antivirals
Source text: The state of HIV infection is often monitored by CD4 counts (the higher the better) and circulating virus (the lower the better).

[6] = for fasting blood glucoses: patient eleven
[7] = patient three, donepezil 5 mg daily, over the next week
[8] = patient twelve, over the next week of donepezil 5 mg daily
[9] = patient six, two months of donepezil 5 mg daily

In the case of COc1cc2c(cc1OC)C(=O)C(CC1CCN(Cc3ccccc3)CC1)C2 (centres unmarked) [donepezil], the “lymphedema in lower extremities” value ([1]; patient five, over the next month of donepezil 5 mg orally daily) was “notable decline”, the “symptoms of painful diabetic polyneuropathy” value ([1]; patient four, one month of donepezil 5 mg daily) was “significantly reduced” and the electrocardiogram ([1]; patient fourteen (history of atrial fibrillation), donepezil 10 mg orally daily, about five weeks) was “normal sinus rhythm”. The foot drop ([1]; patient one, two months of donepezil 5 mg orally daily) was “resolved”, the “painful symptoms of diabetic polyneuropathy” value ([1]; patient seven, donepezil 5 mg orally daily) was “diminution” and the “edema in intact lower extremity” value ([1]; patient twelve, donepezil 5 mg daily) was “eliminated”. It also gave a creatinine ([2]; patient fifteen, two months of donepezil 5 mg daily, before 1.8) of 1.1, a BUN ([2]; patient fifteen, two months of donepezil 5 mg daily, before 40) of 24 and a creatinine ([2]; patient fourteen, five weeks of donepezil 5 then 10 mg, admission 2.0) of 1.2. For the same molecule, the ultrafiltration per dialysis ([2]; patient sixteen, hemodialysis, two months of donepezil 5 mg daily, before 5-6 liters three times weekly) was “less than 2 liter”, the creatinine ([2]; patient twelve, one month of donepezil 5 mg daily, admission 1.6) was 0.9 and the BUN ([2]; patient twelve, one month of donepezil 5 mg daily, admission 38) was 21. The “over all weight loss” value [3] was “greater than 20 pounds”, the blood pressure ([4]; patient eight, after one month, midodrine and diuretic discontinued) was 120/70 and the blood pressure ([4]; patient eight, ensuing week of donepezil 5 mg daily) was 110/60. The blood pressure ([4]; patient eight, over 5 days of donepezil 5 mg daily, midodrine decreased, before 85/60) was 100/60, the blood pressure ([4]; patient eighteen, next 10 days of donepezil 5 mg daily) was 100/70 and the blood pressure ([4]; patient eighteen, over 7 days of donepezil 5 mg daily, before 80/50) was 90/60. For the same molecule, the blood pressure ([4]; patient seven, donepezil 5 mg daily, furosemide 20 mg every day) was 110/70, the diastolic blood pressure ([4]; patient seven, first two weeks of donepezil 5 mg daily) was “less than 80 mm Hg” and the diastolic blood pressure ([4]; patient seven, next two weeks of donepezil 5 mg daily) was 70 mm Hg. The blood pressure ([4]; patient seventeen, follow up one month later on donepezil 5 mg daily) was 120/60, the blood pressure ([4]; patient seventeen, ten days of donepezil 5 mg daily, midodrine discontinued) was “greater than 100/60” and the blood pressure [4, 7] was “normalized”. The “symptoms of congestive heart failure” value [4, 7] was “resolved”, the blood pressure ([4]; patient twenty, donepezil 5 mg daily, two weeks after nitrates and lisinopril discontinued) was 120/70 and the blood pressure ([4]; patient twenty, donepezil 5 mg daily, week after lisinopril decreased to 5 mg daily) was 110/70. For the same molecule, the blood pressure ([4]; patient twenty, over two weeks of donepezil 5 mg daily, before 80/50) was 100/70, the shortness of breath ([4]; patient two, after one week of donepezil 5 mg daily) was “no further episodes of shortness of breath” and the blood pressure ([4]; patient two, after one week of donepezil 5 mg daily with furosemide 40 mg daily) was 100/60. The blood pressure ([4]; patient two, one week later, furosemide 20 mg every other day) was 110/70, the “evening dose of glargine insulin” value ([5]; patient eighteen, donepezil 10 mg orally daily, one month, before 5 units) was “discontinued” and the “insulin requirements at bedtime (lantus)” value ([5]; donepezil increased to 10 mg daily) was 12 units. For the same molecule, the “insulin requirements at bedtime (lantus)” value ([5]; over one month of donepezil 5 mg orally daily) was 25 units, the “pre prandial insulin coverage” value ([5]; patient four, after one month of donepezil 5 mg daily) was “eliminated” and the “requirement for lantus insulin” value ([5]; patient nineteen, donepezil 5 then 10 mg, before 12 units at bedtime) was “no longer required lantus insulin”. The “daily insulin requirement over a 24 hour period” value ([5]; patient one, after an additional month (two months) of donepezil 5 mg daily, before approx. 32 units) was “approximately 12 units”, the “insulin requirement for 24 hour period” value ([5]; patient one, insulin pump, after one month of donepezil 5 mg orally daily, before approx. 32 units) was < 20 units and the “pre-prandial insulin coverage (Novolog)” value ([5]; patient twelve, over 4 days of donepezil 5 mg daily, before 8 units) was 4 units. For the same molecule, the “evening dose of lantus insulin” value ([5]; patient twelve, over 4 days of donepezil 5 mg daily, before 30 units) was 20 units, the “evening dose of lantus” value [5, 8] was 10 units and the “pre prandial insulin coverage” value [5, 8] was “eliminated”. For the same molecule, the “dose of Humulin N in the AM” value ([5]; po, 5 mg) was 10 units, the “evening dose of Humulin” value ([5]; po, 5 mg) was 20 units and the viral load (HIV; patient six, one month of donepezil 5 mg orally daily, before 1-2 million) was 1 million. The CD4 count (HIV; patient six, one month of donepezil 5 mg orally daily, before less than 20) was 26, the CD4 count (HIV; [9]) was 42 and the viral load (HIV; [9]) was “non existent (below measurement detection)”. The CD4 count (HIV; patient thirteen, two months of donepezil 5 mg daily, before 24) was 36, the viral load (HIV; patient thirteen, two months of donepezil 5 mg daily, before over 4 million) was 1.6 million and the weight gained (HIV; patient thirteen, two months of donepezil 5 mg daily) was “over 15 pounds”. For the same molecule, the fasting blood glucoses ([6]; donepezil 10 mg daily) was “less than 80 mg %”, the fasting blood glucoses ([6]; first month, donepezil 5 mg orally daily) was “less than 80 mg %” and the fasting blood sugars ([6]; patient fifteen, after one week of donepezil 5 mg daily) was “less than 100 mg %”. The preprandial blood sugars ([6]; patient five, after 3 days of donepezil 5 mg orally daily plus prandin 2 mg, before 100-120) was “less than 80 mg %”, the blood sugars ([6]; patient five, donepezil 5 mg daily, prandin discontinued, 1800 ADA diet) was “less than 110 mg %” and the “blood sugar at lunch, one episode” value ([6]; patient five, donepezil 5 mg orally daily plus prandin) was “less than 50 mg %”. For the same molecule, the “other measured blood glucoses” value ([6]; patient nine, donepezil 10 mg, all oral hypoglycemic agents discontinued) was “less than 120 mg %”, the “fasting blood glucose levels” value ([6]; patient nine, over 7 days of donepezil 5 mg orally daily, micronase discontinued) was “less than 90 mg %” and the blood glucose values ([6]; patient nineteen, donepezil 10 mg, metformin discontinued, 1800 cal ADA diet) was “less than 120 mg %”. For the same molecule, the fasting blood sugars ([6]; patient sixteen, following donepezil 5 mg daily, glipizide discontinued, before 150-200) was “less than 100 mg %”, the fasting blood sugars ([6]; patient ten, first week of donepezil 5 mg orally daily) was “less than 100 mg %” and the blood sugars ([6]; patient ten, next 7 days of donepezil 5 mg orally daily) was “less than 111 mg %”. The fasting blood sugars ([6]; patient twelve, first 4 days of donepezil 5 mg daily) was “less than 100 mg %” and the fasting blood sugars ([6]; patient twelve, next week of donepezil 5 mg daily) was “less than 100 mg %”.
